Key:
[1] = test system: peripheral blood lymphocyte (PBL) count; assay: Rat peripheral lymphocyte lowering (PLL) assay; type: in vivo; conditions: male Sprague-Dawley rats, 1.00 mg/kg oral dose, 5 hours post-dose, vs vehicle; FIG. 8
Method: (§1) Male Sprague-Dawley rats (7 weeks of age at start of study) (Charles River Laboratories) were housed two per cage and maintained in a humidity-controlled (40-60%) and temperature-controlled (68-72° F.) facility on a 12 h:12 h light/dark cycle (lights on at 6:30 am) with free access to food (Harlan Teklad, Orange, Calif., Rodent Diet 8604) and water. Rats were allowed one week of habituation to the animal facility before testing.
(§2) Rats were given a 1.00 mg/kg oral dose of the 2nd enantiomer of compound 12 (isolated after resolution of compound 12 by HPLC, with a retention time of 13.9 min per the conditions reported in Example 1.29) or dosing vehicle (0.5% methylcellulose in sterile water) in a total volume of 1.00 mL/kg. Peripheral blood samples were collected at 5 hours post-dose. Blood was collected via indwelling catheter. A complete cell count (CBC), including lymphocyte count, was obtained using a CELL-DYN® 3700 (Abbott Laboratories, Abbott Park, Ill.) instrument. Results are presented in FIG. 8, in which peripheral blood lymphocyte (PBL) count is shown for the 5 hour group.

mean ankle diameter = assay: Collagen-induced arthritis in rats (ankle diameter); type: in vivo, rat; conditions: female Lewis rats, collagen injections day 0 and 6, p.o. q.d. day 0-16, 0.3, 1 and 3 mg/kg; FIG. 9
Method: Female Lewis rats were used in this study. Acclimated animals were anesthetized with isoflurane and given the first collagen injection (day 0). On day 6, they were anesthetized again for the second collagen injection. Collagen was prepared by making a 4 mg/mL solution in 0.01 N acetic acid. Equal volumes of collagen and incomplete Freund's adjuvant were emulsified by hand mixing until a bead of this material held its form when placed in water. Each animal received 300 μL of the mixture each time, spread over 3 subcutaneous sites on the back.
Treatment (p.o., q.d., 5 mL/kg dosing volume) began on day 0 and continued through day 16 with vehicle or compounds given at 24 h intervals. Rats were weighed on days 0, 3, 6 and 9 through 17 and caliper measurements of the ankles taken on days 9 through 17. The 2nd enantiomer of compound 12 (isolated after resolution of compound 12 by HPLC, with a retention time of 13.9 min per the conditions reported in Example 1.29) was dosed at 0.3, 1 and 3 mg/kg.

[2] = Cardiac telemetry / bradycardia assay in the rat; type: in vivo; conditions: male Sprague-Dawley rats, oral, vehicle PEG400, heart rate over a 120 min period; FIG. 11
Method: Male Sprague-Dawley rats (250-300 g at time of surgery) were implanted by Charles River Laboratories (Wilmington, Mass.) with cardiac transmitting devices (Data Sciences PhysioTel C50-PXT) into the peritoneal space, with a pressure-sensing catheter inserted into the descending aorta. Rats are allowed at least one week to recover. Rats were housed in individual cages and maintained in a humidity-controlled (30-70%) and temperature-controlled (20-22° C.) facility on a 12 h:12 h light/dark cycle (lights on at 7:00 am) with free access to food (Harlan-Teklad, Orange, Calif., Rodent Diet 8604) and water. Rats were allowed one week of habituation to the animal facility before testing.
The implanted transmitting devices transmitted continuous measurements of blood pressure (systolic, diastolic, mean arterial, pulse), heart rate, body temperature, and motor activity in freely moving conscious animals. […] Telemetry recording occurred over a 21-h period, starting at noon and continuing until 9:00 am the following day. […]
By way of illustration and not limitation, the rats were administered vehicle (PEG 400) and the 2nd enantiomer of compound 12 (isolated after resolution of compound 12 by HPLC, with a retention time of 13.9 min per the conditions reported in Example 1.29) and heart rate was then measured over a 120 min period.

MOG-induced EAE = assay: MOG-induced experimental autoimmune encephalomyelitis (EAE) in mice; type: in vivo, mouse; conditions: female C57BL/6 mice, oral once a day day 3 to day 21, 0.3, 1 and 3 mg/kg; FIG. 10
Method: as §1, with “Female C57BL/6 mice (8 to 10” for “Male Sprague-Dawley rats (7”, “(Jackson Laboratory, Bar Harbor, Me.)” for “(Charles River Laboratories)”, “four” for “two”, “Mice” for “Rats”
Mice were immunized subcutaneously, 50 μL per hind flank, with a total of 100 μg MOG35-55 peptide emulsified 1:1 with Complete Freund's adjuvant containing 4 mg/mL heat-killed Mycobacterium tuberculosis. […]
Severity of disease symptoms was scored as follows (in increasing order of severity): 0=normal; 1=limp tail OR hind limb weakness; 2=limp tail AND limb weakness/weakness of 2 or more limbs; 3=severe limb weakness or single limb paralysis; 4=paralysis of 2 or more limbs; 5=death.
Mice were dosed orally, with vehicle or the 2nd enantiomer of compound 12 (isolated after resolution of compound 12 by HPLC, with a retention time of 13.9 min per the conditions reported in Example 1.29), once a day from day 3 until day 21. […] Mice were monitored daily from day 7 onward for disease symptoms. After the last dose on day 21, disease progression was monitored daily for 2 more weeks.

[3] = test system: peripheral blood lymphocyte (PBL) count; assay: Mouse peripheral lymphocyte lowering (PLL) assay; type: in vivo; conditions: male BALB/c mice, 5 hours post-dose, vs vehicle
Method: as §1, with “BALB/c mice” for “Sprague-Dawley rats (7 weeks of age at start of study)”, “Laboratories, Wilmington, Mass.)” for “Laboratories)”, “four” for “two”, “(40 to 60%)” for “(40-60%)”, “(68 to 72°” for “(68-72°”, “Mice” for “Rats”
Mice were given an oral dose of Compound 5, Compound 7 or dosing vehicle (0.5% methylcellulose) in a total volume of 10 mL/kg. Peripheral blood samples were collected at 5 hours post-dose. The mice were anesthetized with isoflurane and blood was collected via cardiac puncture. A complete cell count (CBC), including lymphocyte count, was obtained using a CELL-DYN® 3700 (Abbott Laboratories, Abbott Park, Ill.) instrument. Results are presented in FIGS. 1 and 2, in which peripheral blood lymphocyte (PBL) count is shown for the 5 hour group.
as §2, with “Mice were” for “Rats were”, “of 10” for “of 1.00”, “post-dose. The mice were anesthetized with isoflurane and blood” for “post-dose. Blood”, “via cardiac puncture.” for “via indwelling catheter.”, “FIG. 7,” for “FIG. 8,”

S1P1 receptor = target: T1, S1P1 receptor (Homo sapiens, UniProt P21453); assay: HTRF assay for direct cAMP measurement (S1P1 agonism); type: cell-based; conditions: recombinant CHO-K1 cells stably transfected with S1P1 receptors; decrease of cAMP
T1 construct: expressed in transfected cells; host or cells: CHO-K1 (ATCC CCL-61), stably transfected
Description: Compounds were screened for agonists of the S1P1 receptor (e.g., human S1P1 receptor) using the HTRF® assay for direct cAMP measurement (Gabriel et al., Assay and Drug Development Technologies, 1:291-303, 2003) and recombinant CHO-K1 cells stably transfected with S1P1 receptors. CHO-K1 cells were obtained from ATCC® (Manassas, Va.; Catalog # CCL-61). An agonist of the S1P1 receptor was detected in the HTRF® assay for direct cAMP measurement as a compound which decreased cAMP concentration. HTRF® assay also was used to determine EC50 values for S1P1 receptor agonists.
HTRF® assay kit was purchased from Cisbio-US, Inc. (Bedford, Mass.; Catalog #62AM4PEC). The HTRF® assay supported by the kit is a competitive immunoassay between endogenous cAMP produced by the CHO-K1 cells and tracer cAMP labeled with the dye d2. The tracer binding is visualized by a monoclonal anti-cAMP antibody labeled with Cryptate. The specific signal (i.e., fluorescence resonance energy transfer, FRET) is inversely proportional to the concentration of unlabeled cAMP in the standard or sample.
The fluorescence ratio (665 nm/620 nm) of the standards (0.17 to 712 nM cAMP) included in the assay was calculated and used to generate a cAMP standard curve according to the kit manufacturer's instructions. The fluorescence ratio of the samples (test compound or compound buffer) was calculated and used to deduce respective cAMP concentrations by reference to the cAMP standard curve.
The HTRF® assay was carried out using a two-step protocol essentially according to the kit manufacturer's instructions, in 20 μL total volume per well in 384-well plate format (ProxiPlates; PerkinElmer, Fremont, Calif.; catalog #6008280). […] The plate was then further incubated at room temperature for 1 hour, after which the assay plate was read.
HTRF® readout was accomplished using a PHERAstar (BMG LABTECH Inc., Durham, N.C.) or EnVision™ (PerkinElmer, Fremont Calif.) microplate reader.

S1P3 receptor = S1P3 receptor (Homo sapiens, UniProt Q99500); conditions: attributed to agonism of the S1P3 receptor; cited from earlier work
[4] = test system: experimental autoimmune myasthenia gravis (EAMG); conditions: prophylactic oral administration, 1 mg/kg, three times a week, C57BL/6 mice; cited from earlier work

T1 sequence (P21453 whole entry): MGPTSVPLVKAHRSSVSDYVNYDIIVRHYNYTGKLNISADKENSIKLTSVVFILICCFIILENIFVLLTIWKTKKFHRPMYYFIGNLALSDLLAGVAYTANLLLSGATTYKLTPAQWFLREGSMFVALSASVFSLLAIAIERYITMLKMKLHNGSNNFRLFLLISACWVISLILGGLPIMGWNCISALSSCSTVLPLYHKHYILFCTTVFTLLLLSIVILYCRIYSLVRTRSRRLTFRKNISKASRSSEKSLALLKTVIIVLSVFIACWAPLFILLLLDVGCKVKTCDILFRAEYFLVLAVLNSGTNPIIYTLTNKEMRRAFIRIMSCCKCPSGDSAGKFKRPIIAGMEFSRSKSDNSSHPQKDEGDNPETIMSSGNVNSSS
Chain of S1P3 receptor (Q99500 whole entry): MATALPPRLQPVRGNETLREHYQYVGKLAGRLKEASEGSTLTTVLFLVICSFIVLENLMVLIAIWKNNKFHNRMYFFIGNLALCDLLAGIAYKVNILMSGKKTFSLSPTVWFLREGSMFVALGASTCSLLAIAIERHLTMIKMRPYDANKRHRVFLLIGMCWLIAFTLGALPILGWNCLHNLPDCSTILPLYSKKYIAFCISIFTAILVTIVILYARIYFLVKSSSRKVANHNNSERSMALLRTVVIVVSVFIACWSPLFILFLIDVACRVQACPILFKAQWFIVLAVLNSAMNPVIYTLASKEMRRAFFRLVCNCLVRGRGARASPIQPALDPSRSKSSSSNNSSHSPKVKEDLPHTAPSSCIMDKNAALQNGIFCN

O=C(O)C[C@H]1CCc2c1[nH]c1ccc(OCc3ccc(C4CCCC4)c(C(F)(F)F)c3)cc21 [2nd enantiomer of compound 12, (R)-2-(7-(4-cyclopentyl-3-(trifluoromethyl)benzyloxy)-1,2,3,4-tetrahydrocyclopenta[b]indol-3-yl)acetic acid]
activity for inducing PBL lowering (lymphopenia) [1]: exhibited activity for inducing PBL lowering (lymphopenia) | reduction of mean ankle diameter (mean ankle diameter): exhibited activity for reducing mean ankle diameter | reduction of heart rate (bradycardia) [2]: no or substantially no reduction of heart rate | reduction of severity of disease symptoms (clinical score) in EAE (MOG-induced EAE): exhibited activity in the mouse EAE assay | activity for inducing PBL lowering (lymphopenia) ([3]; 1.00 mg/kg oral dose, FIG. 7): exhibited activity for inducing PBL lowering (lymphopenia)

N#Cc1cc(COc2ccc3[nH]c4c(c3c2)CCC4CC(=O)O)cc(OC(F)(F)F)c1 (stereo not drawn) [Compound 4, 2-(7-(3-cyano-5-(trifluoromethoxy)benzyloxy)-1,2,3,4-tetrahydrocyclopenta[b]indol-3-yl)acetic acid]
EC50 (S1P1 receptor): 16 nM

CC(C)Oc1ccc(COc2ccc3[nH]c4c(c3c2)CCC4CC(=O)O)cc1C#N (stereo not drawn) [Compound 5, 2-(7-(3-cyano-4-issopropoxybenzyloxy)-1,2,3,4-tetrahydrocyclopenta[b]indol-3-yl)acetic acid]
activity for inducing PBL lowering (lymphopenia) ([3]; oral dose, FIGS. 1 and 2): exhibited activity for inducing PBL lowering (lymphopenia)

N#Cc1cc(COc2ccc3[nH]c4c(c3c2)CCC4CC(=O)O)ccc1OC(F)(F)F (stereo not drawn) [Compound 7, 2-(7-(3-cyano-4-(trifluoromethoxy)benzyloxy)-1,2,3,4-tetrahydrocyclopenta[b]indol-3-yl)acetic acid]
activity for inducing PBL lowering (lymphopenia) ([3]; oral dose, FIGS. 1 and 2): exhibited activity for inducing PBL lowering (lymphopenia)

O=C(O)CC1CCc2c1[nH]c1ccc(OCc3ccc(C(F)(F)F)cc3C(F)(F)F)cc21 (stereo not drawn) [Compound 8, 2-(7-(2,4-bis(trifluoromethyl)benzyloxy)-1,2,3,4-tetrahydrocyclopenta[b]indol-3-yl)acetic acid]
EC50 (S1P1 receptor): 9 nM

O=C(O)CC1CCc2c1[nH]c1ccc(OCc3cc(C(F)(F)F)cc(C(F)(F)F)c3)cc21 (stereo not drawn) [Compound 10, 2-(7-(3,5-bis(trifluoromethyl)benzyloxy)-1,2,3,4-tetrahydrocyclopenta[b]indol-3-yl)acetic acid]
EC50 (S1P1 receptor): 26 nM

CCCCCCCCc1ccc(CCC(N)(CO)CO)cc1 [FTY720]
adverse event in clinical trials (S1P3 receptor): transient asymptomatic bradycardia | development of EAMG [4]: completely prevented

Source: US9522133B2, “Substituted 1,2,3,4-tetrahydrocyclopenta[b]indol-3-yl)acetic acid derivatives useful in the treatment of autoimmune and inflammatory disorders” (Arena Pharmaceuticals, Inc., priority 2008, dated 2016)
